In brackets after ≈: the same amount, converted by molar mass.
Experiments:
[1] = test system: Mycobacterium tuberculosis; assay: Antimycobacterial activity against Mycobacterium tuberculosis H37Rv ATCC 27294 after 5 days by MABA; assay type: functional; conditions: H37Rv ATCC 27294, 120 h
[2] = test system: Mycobacterium tuberculosis; assay: Potency index, ratio of ethambutol MIC to compound MIC for Mycobacterium tuberculosis H37Rv ATCC 27294; assay type: functional
[3] = Selectivity index, ratio of cytotoxic concentration for HEK293 cells to MIC for Mycobacterium tuberculosis H37Rv ATCC 27294; assay type: toxicity; conditions: human, read-out: Selectivity Index
[4] = test system: Mycobacterium tuberculosis; assay: Antimycobacterial activity against Mycobacterium tuberculosis H37Rv; assay type: functional
[5] = test system: Mycobacterium tuberculosis; assay: Antimycobacterial activity against Mycobacterium tuberculosis MC2 7000; assay type: functional
[6] = test system: Mycobacterium tuberculosis; assay: Antimycobacterial activity against Mycobacterium tuberculosis MC2 6230; assay type: functional
Pantothenate synthetase = target: T1, Pantothenate synthetase (Mycobacterium tuberculosis, UniProt P9WIL5); assay: Inhibition of Mycobacterium tuberculosis pantothenate synthetase
T1 sequence (P9WIL5 whole entry): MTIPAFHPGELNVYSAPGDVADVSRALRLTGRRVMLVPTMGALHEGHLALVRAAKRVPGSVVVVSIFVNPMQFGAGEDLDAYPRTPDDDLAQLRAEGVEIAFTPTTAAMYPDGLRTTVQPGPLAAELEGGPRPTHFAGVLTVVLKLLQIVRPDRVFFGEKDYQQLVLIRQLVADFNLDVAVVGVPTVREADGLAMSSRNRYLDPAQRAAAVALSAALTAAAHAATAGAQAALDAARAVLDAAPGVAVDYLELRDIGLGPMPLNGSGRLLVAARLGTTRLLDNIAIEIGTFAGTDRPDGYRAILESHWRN

[7] = test system: Mycobacterium tuberculosis; assay: Antimycobacterial activity against Mycobacterium tuberculosis H37Rv ATCC 27294 by agar dilution method; assay type: functional
[8] = test system: Mycobacterium tuberculosis; assay: Potency index, ratio of linezolid MIC to compound MIC for Mycobacterium tuberculosis H37Rv; assay type: functional
[9] = test system: Mycobacterium tuberculosis; assay: Potency index, ratio of ethambutol MIC to compound MIC for Mycobacterium tuberculosis H37Rv; assay type: functional
[10] = target: T2, Phosphotyrosine protein phosphatase (Mycobacterium tuberculosis, UniProt A0A045ISB3); assay: Inhibition of Mycobacterium tuberculosis PTPB
T2 sequence (A0A045ISB3 whole entry): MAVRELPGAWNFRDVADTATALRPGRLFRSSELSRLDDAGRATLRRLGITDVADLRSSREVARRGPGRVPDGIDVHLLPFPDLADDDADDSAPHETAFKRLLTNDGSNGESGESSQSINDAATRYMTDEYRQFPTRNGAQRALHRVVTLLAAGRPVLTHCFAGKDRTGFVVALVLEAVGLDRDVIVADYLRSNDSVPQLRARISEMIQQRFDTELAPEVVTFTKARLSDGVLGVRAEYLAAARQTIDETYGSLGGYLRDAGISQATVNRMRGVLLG

[11] = Mycobacterium tuberculosis, H37Rv

O=C(N/N=C1/C(=O)N(Cc2ccc(Cl)cc2)c2ccccc21)c1ccc(-n2cc(-c3ccccc3)nn2)cc1O
MIC [1]: 0.39 µg/mL (≈ 0.71 µM) | Ratio [2]: 8 | selectivity ratio [3]: > 128

Clc1cccc(Cl)c1-c1nnc2sc(-c3cccnc3)nn12
MIC [4, 11]: 25 µg/mL (≈ 71.8 µM)

CC(=O)NC[C@H]1CN(c2ccc(N3CCOCC3)c(F)c2)C(=O)O1 [LINEZOLID]
MIC [4, 11]: 1 µg/mL (≈ 2.96 µM)

CO[C@H]1/C=C/O[C@@]2(C)Oc3c(C)c(O)c4c(O)c(c(/C=N/N5CCN(C)CC5)c(O)c4c3C2=O)NC(=O)/C(C)=C\C=C\[C@H](C)[C@H](O)[C@@H](C)[C@@H](O)[C@@H](C)[C@H](OC(C)=O)[C@@H]1C [RIFAMPIN]
MIC [1]: 0.39 µg/mL (≈ 0.474 µM) | MIC98 [4]: 40 µg/mL (≈ 48.6 µM) | MIC [4, 11]: 0.043 to 0.5 µg/mL (≈ 0.0523 to 0.608 µM) | MIC [5]: 0.12 to 144 µM | MIC [6]: 0.12 to 144 µM

CC[C@@H](CO)NCCN[C@@H](CC)CO [ETHAMBUTOL]
MIC [1]: 3.13 µg/mL (≈ 15.3 µM) | MIC [4, 11]: 1.56 µg/mL (≈ 7.64 µM)

COc1ccc(-c2nnc(-c3cccnc3)n2Nc2nc3c(Cl)cccc3s2)cc1
MIC99 [4, 11]: 25 µg/mL (≈ 57.5 µM)

NC(=O)c1cnccn1 [PYRAZINAMIDE]
MIC [4, 11]: 100 µg/mL (≈ 812 µM)

COc1ccc(-n2cc(Cn3nc(-c4ccccc4)c4c3CCN(C(=O)Nc3ccccc3)C4)nn2)cc1
IC50 (Pantothenate synthetase): 1010 nM | MIC [7]: 24.7 µM (≈ 12.5 µg/mL)

O=C1CC2CN(c3ccc(N4C[C@H](Cn5ccnn5)OC4=O)cc3F)CC2C1 (stereo not given in full)
MIC [4, 11]: 0.5 µg/mL (≈ 1.3 µM) | Ratio [8]: 2

c1cncc(-c2nn3c(COc4cnccn4)nnc3s2)c1
MIC [4, 11]: 0.4 µg/mL (≈ 1.28 µM)

CCCCCc1ccc(-c2cn(CC(O)COc3ccc4c(c3)OC3(CCCCC3)CC4=O)nn2)cc1 (stereo not given)
MIC [4, 11]: 0.78 µg/mL (≈ 1.55 µM) | Ratio [9]: 2

NNC(=O)c1ccncc1 [ISONIAZID]
MIC [1]: 0.06 µg/mL (≈ 0.438 µM) | MIC [4, 11]: 0.075 µg/mL (≈ 0.547 µM) | MIC [5]: 0.12 to 144 µM | MIC [6]: 0.12 to 144 µM

O=C(CCCCCCn1cc(COc2ccc(-c3cc(C(=O)O)no3)c(C3CCCCC3)c2)nn1)Nc1ccc2cc3ccccc3cc2c1
IC50 [10]: 170 nM

CC1=C(C(=O)O)N2C(=O)[C@@H](NC(=O)[C@H](N)c3ccccc3)[C@H]2SC1 [CEPHALEXIN ANHYDROUS]
MIC [5]: 0.12 to 144 µM | MIC [6]: 0.12 to 144 µM

CCc1cc(C(N)=S)ccn1 [ETHIONAMIDE]
MIC [5]: 0.12 to 144 µM | MIC [6]: 0.12 to 144 µM

— ChEMBL document CHEMBL4190261, “Triazole derivatives and their anti-tubercular activity” (Eur J Med Chem, 2017)
